From US12029715B2, “Precursor compounds for providing retinoids of the vitamin A5 pathway and uses thereof” (UNIVERSITY OF DEBRECEN, priority 2015, dated 2024) come the findings set out here.

For data set [1], the system named is oligodendrocytes cell line 158N. As to the kind of experiment: Metabolic conversion in mouse oligodendrocytes cell culture (LC-MS). The format is in vitro ADME. As to conditions: for 9CDHRA levels in cells after treatment: 10^−5M for 18 h; for ATROL levels in cells after treatment: 10^−6M. Summed up:
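Mouse 158N oligodendrocytes at 70–80% confluency were treated with retinoid precursors or esters, with ethanol as vehicle, at 10^−6 M in one variant and from a 10^−2 M ethanol solution in the other. Cells were harvested after 18 h under limited light. Metabolites were analysed by LC-MS.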

Data set [2] in a line: Mouse oral supplementation, retinoid levels in serum, brain and liver (LC-MS). The data set is classed as in vivo. The conditions noted are these: mice, per os 40 mg/kg, 11 h after treatment.
Description: For metabolic analyses ATROL, 9CDHROL, 9CDHBC and control solutions were prepared as described above. Single per os application of the dose of 40 mg/kg of each substance was used to treat mice in the evening and samples were collected 11 h later in the light protected conditions, weighted, frozen in liquid nitrogen and stored at −80° C. until analyses. Serum was prepared and immediately stored in brown vials at −80° C., till further analysis.
Accordingly, for sample preparation 100 mg of the material (if samples were under 100 mg, water was added up to the used standard weight: 100 mg) or 100 μl serum was diluted with a threefold volume of isopropanol, the tissues were minced by scissors, vortexed for 10 seconds, put in a ultrasonic bath for 5 minutes, shaken for 6 minutes and centrifuged at 13000 rpm in a Heraeus BIOFUGE Fresco at +4° C. […] The dried extracts were resuspended with 30 μl of methanol—MTBE (50-50) and transferred into the autosampler and 10 μl subsequently analysed.
Mouse brain samples were prepared according to the procedure described above. Briefly, after single per os application of the dose of 40 mg/kg of 9CDHROL (or other cited substances) in the evening mice were sacrificed after 11 hours and tissues samples including brain were dissected under light-protection conditions, weighted, frozen in liquid nitrogen and stored at −80° C. until analyses. Serum was prepared and immediately stored in brown vials at −80° C., till further analysis.
For mouse supplementation experiments we treated n=6 mice per os with 40 mg/kg bw 9CDHROL and 11 h after the treatment the mice were killed and blood, brain and liver was taken. After centrifugation of the drawn blood, serum was obtained.
In a further data set the target is T1, hRXRα LBD (Homo sapiens, UniProt P19793).
T1 sequence (P19793 223-462): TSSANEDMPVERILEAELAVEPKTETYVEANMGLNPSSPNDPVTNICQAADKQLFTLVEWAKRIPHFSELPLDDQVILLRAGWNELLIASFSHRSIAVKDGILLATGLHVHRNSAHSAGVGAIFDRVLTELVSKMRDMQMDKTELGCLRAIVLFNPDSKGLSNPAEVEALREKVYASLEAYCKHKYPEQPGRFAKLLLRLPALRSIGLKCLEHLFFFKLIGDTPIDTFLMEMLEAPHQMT
As to the kind of experiment: ESI-MS in non-denaturing conditions, binding to RXR LBD. As to conditions: titration monitored by ESI-MS. More on the design: cDNAs encoding hRXRα LBD (223-462); His-tag (N); made in house. How it is done: (§1) cDNAs encoding hRXRα LBD (223-462), hRARα LBD (153-421), hRARBβ LBD (169-414) and hRARγ LBD (178-423) were cloned into pET28b vector to generate N-terminal Histag fusion proteins. Purification was carried out as previously described [Lippert W P et al. 2009, Osz J, et al. 2012], including a metal affinity chromatography and a gel filtration. For details of sample preparation and ESI-MS analyses see below.
cDNAs encoding hRXRαLBD (223-462), hRARαLBD (153-421), hRARβLBD (169-414) and hRARγ LBD (178-423) were cloned into pET28b vector to generate N-terminal His-tag fusion proteins. Purification was carried out as previously described [Lippert W P et al. 2009, Osz J, et al. 2012], including a metal affinity chromatography and a gel filtration. Prior to ESI-MS analysis, samples were desalted on Zeba Spin desalting columns (Pierce) in 150 mM ammonium acetate (pH 8.0). ESI-MS measurements were performed on an electrospray time-of-flight mass spectrometer (MicrOTOF, Bruker Daltonics). Purity and homogeneity of the proteins were verified by mass spectrometry in denaturing conditions (samples were diluted at 2 pmol/μl in a 1:1 water-acetonitrile mixture (v/v) acidified with 1% formic acid). The mass measurements of the noncovalent complexes were performed in ammonium acetate (200 mM; pH 8.0). Samples were diluted to 8 pmol/ml in the previous buffer and continuously infused into the ESI ion source at a flow rate of […] through a Harvard syringe pump (Harvard Apparatus model 11). A careful optimization of the interface parameters was performed to obtain the best sensitivity and spectrum quality without affecting the noncovalent complexes stability. In particular, the capillary exit (CE) ranged from 60 to 150 V with a vacuum interface pressure of 2.3 mbar and was set to 80 V. For ligand-interaction analysis, ligands were added to the proteins in a 5-fold molar excess.

The test system of another data set is hRARα, β and γ LBDs. As to the kind of experiment: ESI-MS in non-denaturing conditions, binding to RAR LBD isotypes. Also noted: species or system human. As to conditions: 5-fold molar excess of ligand. How it is done: as §1
cDNAs encoding hRXRαLBD (223-462), hRARαLBD (153-421), hRARβLBD (169-414) and hRARγ LBD (178-423) were cloned into pET28b vector to generate N-terminal His-tag fusion proteins. Purification was carried out as previously described [Lippert W P et al. 2009, Osz J, et al. 2012], including a metal affinity chromatography and a gel filtration. Prior to ESI-MS analysis, samples were desalted on Zeba Spin desalting columns (Pierce) in 150 mM ammonium acetate (pH 8.0). ESI-MS measurements were performed on an electrospray time-of-flight mass spectrometer (MicrOTOF, Bruker Daltonics). Purity and homogeneity of the proteins were verified by mass spectrometry in denaturing conditions (samples were diluted at 2 pmol/μl in a 1:1 water-acetonitrile mixture (v/v) acidified with 1% formic acid). The mass measurements of the noncovalent complexes were performed in ammonium acetate (200 mM; pH 8.0). […]

The test system of another data set is Rbp1−/− and Rxrγ−/− mice. In words: Y-maze spontaneous alternation. The format is in vivo, mouse. The conditions noted are these: 5-6 hours prior to testing. How it is done:
The Y-maze apparatus and the procedure were as previously described (Wietrzych et al., 2005). Briefly, each mouse was placed at the end of one arm and allowed to explore freely the apparatus for 5 min, with the experimenter out of the animal's sight. Spontaneous alternation performance (SAP) was assessed visually by scoring the pattern of entries into each arm and expressed as a percentage of total number of entries, discounting the first two visits. Total entries were scored as an index of ambulatory activity in the Y-maze, but none of tested mice had to be excluded due to low locomotor performance (score below 9 entries).
Vehicle treatments consisted of 3% ethanol and 3% DMSO solution in sunflower oil. Treatments were administered by intraperitoneal injections at volume/weight ratio 3 ml/kg between 8-10 am and 5-6 h before the test as previously validated (Wietrzych-Schindler M, 2011).

Each structure is given as a SMILES string. “Also recorded” adds a separate entry of the source.

As for `CC(C=CC1=C(C)CCCC1(C)C)=CC=CC(C)CC(=O)O` (stereo not drawn) [9CDHRA, 9-cis-13,14-dihydroretinoic acid], in data set [1], the “9CDHRA levels in cells after treatment” value is given as “very strong increase” and the “ATROL levels in cells after treatment” value is on record as “a low conversion or induced increase”.
In the case of `CC1=C(/C=C/C(C)=C\C=C\C(C)CCO)C(C)(C)CCC1` (stereo not drawn) [9CDHROL, 9-cis-13,14-dihydroretinol], in data set [2], the “9CDHRA levels in serum, brain and liver after treatment (conversion to 9CDHRA)” value was “strong increase; also recorded: strongly increased; also recorded: best conversion”; the “9CDHROL levels in serum, brain and liver after treatment” value is “strongly increased; also recorded: strong and significantly increased levels”. Moreover, in data set [1], the “9CDHRA levels in cells after treatment” value was “strong increase” and the “ATROL levels in cells after treatment” value is reported as “a low conversion or induced increase”. Besides, the “9CDHROL levels in cells after treatment” value in data set [1] (10^−6 M, 18 hours) is “increases; also recorded: excellent/strongly”. Besides, in data set [1] (data not shown), the “conversion to 9CDHRA” value is given as “excellent precursor”.
As to `CC1=C(/C=C/C(C)=C\C=C\[C@H](C)CC(=O)O)C(C)(C)CCC1` [(R)-9CDHRA, (9Z,13R)-13,14-Dihydroretinoic Acid], on hRXRα LBD, the “higher affinity than (S)-9CDHRA for RXR LBD (peak amplitude)” value was “about 65%” and the “lower affinity than 9CRA for RXR LBD (peak amplitude)” value is given as “approximately 30%”. Moreover, in the data set on hRARα, β and γ LBDs, the “binding to RAR LBD isotypes in ESI-MS” value is recorded as “bind to all RAR LBD isotypes”.
For the compound `CC1(C)CCC(C)(C)c2cc(C3(c4ccc(C(=O)O)cc4)OCCO3)ccc21` [UVI2108, reference compound], the “working memory in spontaneous alternation in the Y-maze” value in the data set on Rbp1−/− and Rxrγ−/− mice (Rbp1−/− mice, ATRA 5 mg/kg, UVI2108 1 mg/kg, MA 5 mg/kg, DHA 1 mg/kg, TTNPB 5 mg/kg) is reported as “normalised; also recorded: pro-mnemonic effects”; in the data set with Rbp1−/− and Rxrγ−/− mice (Rxrγ−/− mice, same doses), “not”.
